Test results as given in the NIST ThermoML archive (doi:10.1016/j.tca.2011.05.006).
Numbers after ± are expanded uncertainties.

Experiments:
[1] = 101 kPa, Liquid, Vibrating tube method
[2] = xn = mol fraction of the nth substance listed; conditions: 101 kPa, Liquid, Vibrating tube method

CCCO [propan-1-ol]
[1]
Conditions	mass density [kg/m3]
293.15 K	800.03 ± 0.24
298.15 K	797.81 ± 0.24
303.15 K	795.05 ± 0.24
313.15 K	787.95 ± 0.24

CC(C)NC(C)C [diisopropylamine] + CCCO
mass density [kg/m3], [2]
Conditions	293.15 K	298.15 K	303.15 K	313.15 K
x1 = 0.0813	796.38 ± 0.24	793.94 ± 0.24	791.19 ± 0.24	784.48 ± 0.24
x1 = 0.1608	791.55 ± 0.24	788.58 ± 0.24	785.66 ± 0.24	779.04 ± 0.24
x1 = 0.2398	785.63 ± 0.24	782.57 ± 0.24	779.21 ± 0.24	772.45 ± 0.24
x1 = 0.3497	777.13 ± 0.24	773.41 ± 0.24	769.55 ± 0.24	762.48 ± 0.24
x1 = 0.4398	769.26 ± 0.24	765.67 ± 0.24	761.55 ± 0.24	754.19 ± 0.24
x1 = 0.5546	760.03 ± 0.24	755.85 ± 0.24	751.48 ± 0.24	743.87 ± 0.24
x1 = 0.6487	752.32 ± 0.24	747.75 ± 0.24	743.28 ± 0.24	735.48 ± 0.24
x1 = 0.7383	744.72 ± 0.24	740.05 ± 0.24	735.49 ± 0.24	727.35 ± 0.24
x1 = 0.8491	735.16 ± 0.24	730.09 ± 0.24	725.47 ± 0.24	716.62 ± 0.24
x1 = 0.9395	726.79 ± 0.24	721.53 ± 0.24	716.61 ± 0.24	706.82 ± 0.25
x1 = 1	720.89 ± 0.24	715.35 ± 0.24	710.23 ± 0.24	699.71 ± 0.25

CCO [ethanol]
[1]
Conditions	mass density [kg/m3]
293.15 K	792.17 ± 0.24
298.15 K	786.71 ± 0.24
303.15 K	781.3 ± 0.24
313.15 K	771.14 ± 0.24

CCCCO [butan-1-ol] + CC(C)NC(C)C
[2], x2 = 0
Conditions	mass density [kg/m3]
293.15 K	809.78 ± 0.24
298.15 K	806.05 ± 0.24
303.15 K	802.03 ± 0.24
313.15 K	794.12 ± 0.24

CC(C)NC(C)C [diisopropylamine] + CCO
mass density [kg/m3], [2]
Conditions	293.15 K	298.15 K	303.15 K	313.15 K
x1 = 0.0808	788.65 ± 0.24	783.48 ± 0.24	777.89 ± 0.24	767.17 ± 0.24
x1 = 0.1601	784.61 ± 0.24	779.32 ± 0.24	773.64 ± 0.24	762.87 ± 0.24
x1 = 0.2386	779.98 ± 0.24	774.56 ± 0.24	768.86 ± 0.24	758.28 ± 0.24
x1 = 0.3497	772.63 ± 0.24	767.12 ± 0.24	761.5 ± 0.2	751.13 ± 0.24
x1 = 0.4411	766.01 ± 0.24	760.55 ± 0.24	755.15 ± 0.24	744.76 ± 0.24
x1 = 0.5532	757.4 ± 0.2	752.37 ± 0.24	747.04 ± 0.24	736.47 ± 0.24
x1 = 0.65	749.49 ± 0.24	744.83 ± 0.24	739.74 ± 0.24	728.89 ± 0.24
x1 = 0.7395	742.16 ± 0.24	737.7 ± 0.24	732.71 ± 0.24	721.68 ± 0.24
x1 = 0.8478	733.27 ± 0.24	728.73 ± 0.24	723.74 ± 0.24	712.63 ± 0.25
x1 = 0.9385	725.8 ± 0.2	720.86 ± 0.24	715.91 ± 0.25	704.95 ± 0.25
x1 = 1	720.89 ± 0.24	715.35 ± 0.24	710.23 ± 0.24	699.71 ± 0.25

CCO [ethanol] + CC(C)NC(C)C
[2], x2 = 0
Conditions	mass density [kg/m3]
293.15 K	792.17 ± 0.24
298.15 K	786.71 ± 0.24
303.15 K	781.3 ± 0.24
313.15 K	771.14 ± 0.24

CCCCO [butan-1-ol]
[1]
Conditions	mass density [kg/m3]
293.15 K	809.78 ± 0.24
298.15 K	806.05 ± 0.24
303.15 K	802.03 ± 0.24
313.15 K	794.12 ± 0.24

CC(C)NC(C)C [diisopropylamine]
[1]
Conditions	mass density [kg/m3]
293.15 K	720.89 ± 0.24
298.15 K	715.35 ± 0.24
303.15 K	710.23 ± 0.24
313.15 K	699.71 ± 0.25
